From patent publication US6703362B1, “Random peptides that bind to gastro-intestinal tract (GIT) transport receptors and related methods” (Cytogen Corporation, priority 1997, dated 2004)
Square brackets hold non-standard residues; d marks the D form. Peptide text beside a SMILES is read from it. * marks the point of attachment. Dansyl = CN(C)c1cccc2c(S(=O)(=O)*)cccc12

What was measured:
[1] = test system: fixed Caco-2 cells; assay: Inhibition of GST-peptide fusion binding to fixed Caco-2 cells by synthetic peptides; conditions: peptide from 100 μg/ml serially diluted; GST fusion 10 μg
From the text: Caco-2 cells were fixed, treated with phenylhydrazine and blocked as described above. […] GST-PAX2 binding was inhibited by ZElan032, ZElan033, and ZElan035.

[2] = Peptide stability in simulated intestinal fluid (SIF); assay type: in vitro ADME; conditions: for Rel. Stab.: rank, 1 = most stable to SIF; for remaining at 1 min, 1 mg/ml / remaining at 1 h, 1 mg/ml / remaining at 3 h, 1 mg/ml / remaining at 24 h, 1 mg/ml: simulated intestinal fluid (pancreatin), pH 7.5, 10,000 fold diluted SIF, 37° C.; for remaining at 1 min, 1 mg/ml: read-out: Percent Remaining at: 1 m; for remaining at 1 h, 1 mg/ml: read-out: Percent Remaining at: 1 h; for remaining at 3 h, 1 mg/ml: read-out: Percent Remaining at: 3 h; for remaining at 24 h, 1 mg/ml: read-out: Percent Remaining at: 24 h
Procedure: The relative stability for ZElanO3l, ZElanO53 and ZElan054 was determined in simulated intestinal fluid (SIF) SIF was made by dissolving 100 mg of pancreatin (Sigma cat#P-1625, lot# 122H0812)in 8.4 ml of phosphate stock solution, adjusting the pH to 7.5 with 0.2N NaOH and adjusting the volume to 10 ml with water.
Peptide (3.25 mg) was dissolved in 3.25 ml of 10,000 fold diluted SIF solution at 37° C. Aliquots (0.7 ml) of the digestion solution were then withdrawn at <1 min, 1 h, 3 h, and 21 h or 24 h. The samples were quickly passed through a syringe filter (Millipore Millex-GV 0.22 μm, part# SLGV025LS, lot# H2BM95250) and 300 μL of the filtered solution was immediately injected onto a Hewlett-Packard HPLC system equipped with a C-8 column (Applied Biosystems column and guard column: column-p/n 0711-0023 Spheri-5 ODS 5 μm, 220×4.6 mm). The products were eluted at 1.5 ml/min using an acetonitrile-water gradient. The major fluorescent peaks were collected, lyopholized and identified by MS analysis.

[3] = test system: fixed Caco-2 or C2BBe1 cells; assay: ELISA of GST fusion proteins on fixed Caco-2 or C2BBe1 cells; assay type: binding
Procedure: Fixed Caco-2, C2BBe1, and A431 cell plates were prepared by growing cells on tissue culture treated microtiter plates. When cells were confluent, plates were fixed with 10% formaldehyde, washed twice with PBS and stored with 0.5%BSA-PBS at −20° C. […] The standard ELISA procedure was followed at this point.
The standard ELISA procedure was modified as follows. GST proteins were diluted to an appropriate concentration in PBS containing lkBSA and 0.05% Tween20 (1%BPT), titered and incubated one hour at room temperature. Following five washes an anti-GST monoclonal antibody was added (Sigma, St. Louis Clone GST-2 diluted 1:10,000 in 1%BPT) and incubated one hour. After five more washes goat anti-mouse IgG2b-HRP was added (Southern Biotechnology Associates Inc., Birmingham, Ala., diluted 1:4000 in 1%BPT) and incubated one hour. After five washes plates were developed with TMB peroxidase substrate (Kirkegard and Perry, Gaithersburg, Md.). All data is presented with background binding subtracted.

[4] = test system: intestinal tissue; assay: Preselected phage libraries, rat closed loop: absorption/internalization to intestinal tissue (hybridization autoradiograph); assay type: in vivo
[5] = Isoelectric points of synthetic peptides; assay type: physicochemical
[6] = test system: P100 membrane fraction derived from Caco-2 cells; assay: GST-PAX2 peptides relative binding to P100 fractions (ratio to GST-HAX42); conditions: 20 μg/ml GST-peptide; binding to plastic subtracted; GST-HAX42 = 1.00
Procedure: (§1) The peptides and proteins were analyzed by a dansylated peptide ELISA method in which 96 well plates were coated overnight at 4° C. with 100 μl/well coating protein (normally 100 μg/ml P100 membrane fraction) in 0.05M carbonate buffer pH9.6. Nonspecific binding was blocked using 200 μl/well, 2% Marvel/PBS for 2 hours at 37° C. prior to incubation with dansylated peptides. The plates were washed three times with PBS/0.05% Tween 20 and after each subsequent incubation step. […] A buffer blank control was included to ensure that background binding to plastic was not due to the antibodies used in the assay system. […] The plates were then incubated with an anti-mouse X-HRP conjugated antibody (Southern Biotech 1060-05) at a 1:10,000 dilution in blocking solution, 100 μl/well for 1 hour at room temperature. Plates were developed using 75 μl/well Bionostics TMB substrate and incubated for approximately 10 minutes. The developing reaction was stopped using Bionostics Red Stop solution (25 μl/well), and the optical density of the plates was read at 650nm.
After subtraction of the GST-peptide binding to plastic from P100 binding values, the binding of GST-PAX2 peptides were represented as a ratio of GST-HAX42 binding to P100, which was given the arbitrary value of 1.00. The following ratios were determined from binding to P100 of GST-peptides at a peptide concentration of 20 μg/ml. Bold denotes positive binding to the P100 membrane fraction.

[7] = test system: P100 membrane fractions derived from Caco-2 cells; assay: Dansylated peptide ELISA: relative binding of PAX2 and HAX42 peptides to P100 (ratio to ZElan021); conditions: PAX2 peptides, ratio to ZElan021 = 1.00
Procedure: as §1

C[C@@H](O)[C@H](NC(=O)[C@@H](N)CCCCNS(=O)(=O)c1cccc2c(N(C)C)cccc12)C(=O)N[C@@H](CCCNC(=N)N)C(=O)N[C@@H](CCCCN)C(=O)N[C@@H](CO)C(=O)N[C@@H](CO)C(=O)N[C@@H](CCCNC(=N)N)C(=O)N[C@@H](CO)C(=O)N[C@@H](CC(N)=O)C(=O)N1CCC[C@H]1C(=O)N[C@@H](CCCNC(=N)N)C(=O)NCC(=O)N[C@@H](CCCNC(=N)N)C(=O)N[C@@H](CCCNC(=N)N)C(=O)N[C@@H](Cc1c[nH]cn1)C(=O)N1CCC[C@H]1C(=O)NCC(N)=O [ZElan031] (H-K(Dansyl)TRKSSRSNPRGRRHPG-NH2)
inhibition of GST-P31 binding [1]: inhibited | Rel. Stab. [2]: 3 | remaining at 1 min, 1 mg/ml [2]: 100% | remaining at 1 h, 1 mg/ml [2]: 38.7% | remaining at 3 h, 1 mg/ml [2]: 0% | remaining at 24 h, 1 mg/ml [2]: 0%

gst-SPCGGGSWGRFMQGGLFGGRTDGCGAHRNRTSASLEPPSSDY [GST-SNi34]
binding to fixed Caco-2 or C2BBe1 cells relative to GST control [3]: bound fixed Caco-2 or C2BBe1 cells

RVGQCTDSDVRRPWARSCAHQGCGAGTRNSHGCITRPLRQASAH [Phage SNi10]
found in the intestine samples or fractions ([4]; hSI pool of phages): found in the intestine samples or fractions

STPPSREAYSRPYSVDSDSDTNAKHSSHNRRLRTRSRPN [PAX2]
binding to the intestine / found in the intestine samples ([4]; hPEPT1 pool of phages): not found in the intestine samples | pI [5]: 11.26

gst-TNAKHSSHN [GST-113]
Value (binding to P100 as ratio of GST-HAX42 binding) [6]: 0.26

CC(C)C[C@H](NC(=O)[C@H](CCCNC(=N)N)NC(=O)[C@H](CCCNC(=N)N)NC(=O)[C@H](CC(N)=O)NC(=O)[C@H](Cc1c[nH]cn1)NC(=O)[C@H](CO)NC(=O)[C@H](CO)NC(=O)[C@H](Cc1c[nH]cn1)NC(=O)[C@H](CCCCN)NC(=O)[C@H](C)NC(=O)[C@H](CC(N)=O)NC(=O)[C@@H](NC(=O)[C@@H](N)CCCCNS(=O)(=O)c1cccc2c(N(C)C)cccc12)[C@@H](C)O)C(=O)N[C@@H](CCCNC(=N)N)C(=O)N[C@H](C(=O)N[C@@H](CCCNC(=N)N)C(N)=O)[C@@H](C)O [ZElan033] (H-K(Dansyl)TNAKHSSHNRRLRTR-NH2)
Binding value at 20 μg/ml ([7]; first 20 μg/ml column): 0.35 | Binding value at 50 μg/ml ([7]; first 50 μg/ml column): 0.80 | Binding value at 20 μg/ml ([7]; second 20 μg/ml column): 1.57 | Binding value at 50 μg/ml ([7]; second 50 μg/ml column): 0.66 | inhibition of GST-PAX2 binding [1]: inhibited

C[C@@H](O)[C@H](NC(=O)[C@@H](N)CCCCNS(=O)(=O)c1cccc2c(N(C)C)cccc12)C(=O)N[C@@H](CCCNC(=N)N)C(=O)N[C@@H](CCCCN)C(=O)N[C@@H](CO)C(=O)N[C@@H](CO)C(=O)N[C@H](CCCNC(=N)N)C(=O)N[C@@H](CO)C(=O)N[C@@H](CC(N)=O)C(=O)N1CCC[C@H]1C(=O)N[C@@H](CCCNC(=N)N)C(=O)NCC(=O)N[C@H](CCCNC(=N)N)C(=O)N[C@@H](CCCNC(=N)N)C(=O)N[C@@H](Cc1c[nH]cn1)C(=O)N1CCC[C@H]1C(=O)NCC(N)=O [ZElan054, H2N—K(dns)TRKSSrSNPRGrRHPG—CONH2] (H-K(Dansyl)TRKSS[dR]SNPRG[dR]RHPG-NH2)
inhibition of GST-P31 binding [1]: inhibited | Rel. Stab. [2]: 2 | remaining at 1 min, 1 mg/ml [2]: 97.4% | remaining at 1 h, 1 mg/ml [2]: 58.2% | remaining at 3 h, 1 mg/ml [2]: 11.6% | remaining at 24 h, 1 mg/ml [2]: 2.7%

CC(C)C[C@H](NC(=O)[C@H](CCCNC(=N)N)NC(=O)[C@H](CCCNC(=N)N)NC(=O)[C@H](CC(N)=O)NC(=O)[C@H](Cc1c[nH]cn1)NC(=O)[C@H](CO)NC(=O)[C@H](CO)NC(=O)[C@H](Cc1c[nH]cn1)NC(=O)[C@H](CCCCN)NC(=O)[C@H](C)NC(=O)[C@H](CC(N)=O)NC(=O)[C@@H](NC(=O)[C@@H](N)CCCCNS(=O)(=O)c1cccc2c(N(C)C)cccc12)[C@@H](C)O)C(=O)N[C@@H](CCCNC(=N)N)C(=O)N[C@H](C(=O)N[C@@H](CCCNC(=N)N)C(=O)N[C@@H](CO)C(=O)N[C@@H](CCCNC(=N)N)C(=O)N1CCC[C@H]1C(=O)N[C@@H](CC(N)=O)C(N)=O)[C@@H](C)O [ZElan032] (H-K(Dansyl)TNAKHSSHNRRLRTRSRPN-NH2)
Binding value at 20 μg/ml ([7]; first 20 μg/ml column): 1.43 | Binding value at 50 μg/ml ([7]; first 50 μg/ml column): 0.95 | Binding value at 20 μg/ml ([7]; second 20 μg/ml column): 2.87 | Binding value at 50 μg/ml ([7]; second 50 μg/ml column): 1.06 | inhibition of GST-PAX2 binding [1]: inhibited

gst-RGSTGTAGGERSGVLNLHTRDNASGSGFKPWYPSNRGHK [GST-5PAX5]
binding to fixed Caco-2 or C2BBe1 cells relative to GST control [3]: weak to moderate binding

gst-SRPYSVDSDSDTNAKHSSHNR [GST-105]
Value (binding to P100 as ratio of GST-HAX42 binding) [6]: −0.08

gst-STPPSREAYSRPYSVDSDSD [GST-104]
Value (binding to P100 as ratio of GST-HAX42 binding) [6]: 0.01

gst-RRLRTRSRPN [GST-115]
Value (binding to P100 as ratio of GST-HAX42 binding) [6]: 0.36

CC(C)C[C@H](NC(=O)[C@H](CCCNC(=N)N)NC(=O)[C@H](CCCNC(=N)N)NC(=O)[C@H](CC(N)=O)NC(=O)[C@H](Cc1c[nH]cn1)NC(=O)[C@H](CO)NC(=O)[C@H](CO)NC(=O)[C@@H](N)CCCCNS(=O)(=O)c1cccc2c(N(C)C)cccc12)C(=O)N[C@@H](CCCNC(=N)N)C(=O)N[C@H](C(=O)N[C@@H](CCCNC(=N)N)C(N)=O)[C@@H](C)O [ZElan035] (H-K(Dansyl)SSHNRRLRTR-NH2)
Binding value at 20 μg/ml ([7]; first 20 μg/ml column): 0.12 | Binding value at 50 μg/ml ([7]; first 50 μg/ml column): 0.81 | Binding value at 20 μg/ml ([7]; second 20 μg/ml column): 0.43 | Binding value at 50 μg/ml ([7]; second 50 μg/ml column): 0.77 | inhibition of GST-PAX2 binding [1]: inhibited

C[C@H](NC(=O)[C@H](CC(N)=O)NC(=O)[C@H](CCC(=O)O)NC(=O)[C@@H](N)CCCCNS(=O)(=O)c1cccc2c(N(C)C)cccc12)C(=O)N[C@@H](CC(N)=O)C(=O)N[C@H](C(=O)N[C@@H](CCCNC(=N)N)C(=O)N[C@@H](CCCCN)C(=O)N[C@@H](CO)C(=O)N[C@@H](CO)C(=O)N[C@@H](CCCNC(=N)N)C(=O)N[C@@H](CO)C(=O)N[C@@H](CC(N)=O)C(=O)N1CCC[C@H]1C(=O)N[C@@H](CCCNC(=N)N)C(=O)NCC(=O)N[C@@H](CCCNC(=N)N)C(=O)N[C@@H](CCCNC(=N)N)C(=O)N[C@@H](Cc1c[nH]cn1)C(=O)N1CCC[C@H]1C(=O)NCC(N)=O)[C@@H](C)O [ZElan028] (H-K(Dansyl)ENANTRKSSRSNPRGRRHPG-NH2)
inhibition of GST-P31 binding [1]: inhibited

gst-SSHNRRLRTR [GST-114]
Value (binding to P100 as ratio of GST-HAX42 binding) [6]: 0.17
